# Test results reported in article PMC11904993, “Humanized Candida and NanoBiT Assays Expedite Discovery of Bdf1 Bromodomain Inhibitors With Antifungal Potential” (Advanced Science, 2025).
# “And” between values parts separate entries of the source, which are not always exact repeats. Identical values can stand only once.
# Columns and labels:
# [1] = tested on: IMR90 (primary fibroblast) cells; settings: highest concentration tested (300 µM); 24 h
# Experimental: (§3) Cytotoxicity assays were performed as described^[ [1] ^] with minor changes. Proliferation of human cells was assessed using an MTT colorimetric assay (Cell Proliferation Kit I, Roche). HeLa (epithelial cells, ATCC number CCL‐2) and IMR90 (primary fibroblasts cells, ATCC number CCL‐186) cells were cultured in humidified atmosphere (37 °C and 5% CO2) in DMEM medium containing 10% heat inactivated fetal calf serum and 2 mM glutamine. […] Plates were incubated at 37 °C and 5% CO2 for 24 h before adding 10 mL of MTT labelling reagent (final concentration 0.5 mg mL^−1) to each well. After incubating for a further 4 h, 100 µL of the solubilization solution were added in each well. Plates were allowed to stand overnight in the incubator before measuring the absorbance at 570 nm and at 690 nm in a ClarioStar plate reader. The values of A570–A690 nm were normalized relative to that obtained with vehicle (0.2% DMSO, 0.8% ethanol) and plotted against compound concentration.
# [2] = tested on: C. glabrata strains (WT, pdr1∆ or PDR1 rescue); experiment: Growth assays to assess compound efflux; assay type: cell-based; settings: for growth relative to Solvent = 100 (Figure S10B): compound 50 µM, three replicates
# Experimental: Cells from a single colony were diluted in 0.85% NaCl before being counted using a Neubauer chamber. […] The effect of fluconazole was tested by titration on these strains under similar conditions.
# HeLa cells = settings: highest concentration tested (300 µM); 24 h
# Experimental: as §3
# [3] = tested on: humanized C. albicans strains (both Bdf1 BDs replaced by Brd4 BDs); experiment: Growth in liquid media, humanized C. albicans; assay type: cell-based; settings: Candida albicans, read-out: EC50 (μM), C. albicans (hum)
# Experimental: (§1) Strains were presented in Table S8 (Supporting Information). Cells from a single colony were diluted in 0.85% NaCl before being counted using a Neubauer chamber. They were diluted to a final concentration of 6500 cells mL^−1 per well for all clinical strains of C. albicans and C. glabrata; 65 000 cells mL^−1 per well for C. auris; 13 500 cells mL^−1 per well for C. parapsilosis; 3375 cells mL^−1 per well for C. krusei and 1687.5 cells mL^−1 per well for C. tropicalis, in a sterile 96‐well plate. Cells were then grown in SC medium with or without chemical compounds at 30 °C with regular shaking. The significance of growth defects was assessed using Holm‐Sidak method by GraphPad Prism 10.
# [4] = tested on: C. albicans expressing humanized Bdf1; experiment: Galleria fungal infection model, humanized strain; assay type: in vivo, Galleria mellonella; parameters: key to survival event of one larva (1 = death 0 = no death): 1 = death; 0 = no death; settings: for survival event of one larva (1 = death 0 = no death): Bdf1-hBD* strain
# Experimental: (§2) Galleria mellonella larvae were purchased from Decathlon (La Tronche, France). They were selected in the late larval stages weighing between 300 and 400 mg. Groups of 10 larvae were injected into the right or left last pro‐leg with 10 µl of either PBS, C. albicans suspensions or antifungal drug using an insulin syringe (BDUltra‐Fine 0.3 ml). C. albicans suspensions of the WT and humanized Bdf1 strains were adjusted to 10^6 cells larva^−1. Antifungal drugs (anidulafungin 5 mg kg^−1 or I‐BET726 66 or 44 mg kg^−1) were injected once 30 min before fungal infection. An infected control group received the C. albicans inoculum and the solvent of the drug. A non‐infected control group received only PBS. After inoculation, larvae were placed in Petri dishes and incubated in the dark at 37 °C. The larvae were monitored for 5 days, and survival outcome was determined. For experiments performed at the lower (44 mg kg^−1) dose of IBET‐726, the difference in protection against infection with humanized versus WT C. albicans strains was more evident using the survival data at 40 h rather than at 100 h post‐infection. Larvae were considered dead when no response was observed following touch. All experiments were performed at least 3 times independently. The significance of survival was assessed by a Log‐rank (Mantel‐Cox) test in GraphPad Prism 10.
# [5] = tested on: C. albicans expressing WT Bdf1; experiment: Galleria fungal infection model, WT strain; assay type: in vivo, Galleria mellonella; parameters: key to survival event of one larva (1 = death 0 = no death): 1 = death; 0 = no death
# Experimental: as §2
# C. tropicalis = experiment: Growth in liquid media; assay type: cell-based; settings: Fig 5C; for Growth (%): C. tropicalis
# Experimental: as §1
# C. krusei = experiment: Growth in liquid media; assay type: cell-based; settings: Fig 5C
# Experimental: as §1
# C. auris = experiment: Growth in liquid media; assay type: cell-based; settings: Fig 5C; for Growth (%): C. auris
# Experimental: as §1
# C. parapsilosis = experiment: Growth in liquid media; assay type: cell-based; settings: Fig 5C; for Growth (%): C. parapsilosis
# Experimental: as §1
smiles,measurement,setting,value
"Cc1ccc(-c2nnc(C)c(NCc3ccc(C)o3)n2)cc1 [Compound 24c, 6‐methyl‐N‐((5‐methylfuran‐2‐yl)methyl)‐3‐(p‐tolyl)‐1,2,4‐triazin‐5‐amine]",cytotoxicity toward IMR90 cells (MTT),[1],modest cytotoxicity
same,activity against PDR1 deletion strain versus WT/rescue,"[2]; 50 µM (I-BET726 1 µM), 20 h",unaffected
same,growth relative to Solvent = 100 (Figure S10B),[2]; PDR1 Rescue,76.2272 and 100 and 72.1057
same,growth relative to Solvent = 100 (Figure S10B),[2]; WT,69.2689 and 72.9849 and 92.6631
same,growth relative to Solvent = 100 (Figure S10B),[2]; pdr1∆,52.2261 and 60.5623 and 93.6717
same,cytotoxicity toward HeLa cells (MTT),HeLa cells,modest cytotoxicity
CC(=O)N1c2ccc(-c3ccc(C(=O)O)cc3)cc2C(Nc2ccc(Cl)cc2)CC1C (stereo not drawn) [I-BET726],EC50,[3],0.035 ± 0.003 µM
same,protection against infection,"[4]; 44 mg kg^−1, humanized strain, p = 0.0115, Mantel‐Cox test",significant protection
same,survival of infected larvae,"[4]; 66 mg kg^−1, injected once 30 min before infection, humanized strain",≈ 100 h
same,survival event of one larva (1 = death 0 = no death),"[4]; Figure 6C, Time 8 hours",1
same,survival event of one larva (1 = death 0 = no death),"[4]; Figure 6C, Time 33 hours",1
same,survival event of one larva (1 = death 0 = no death),"[4]; Figure 6C, Time 57 hours",1
same,survival event of one larva (1 = death 0 = no death),"[4]; Figure 6C, Time 70 hours",1
same,survival event of one larva (1 = death 0 = no death),"[4]; Figure 6D, Time 27 hours",1
same,survival event of one larva (1 = death 0 = no death),"[4]; Figure 6D, Time 41 hours",1 and 0
same,protection against infection,[5]; 44 mg kg^−1,not significant
same,survival of infected larvae,"[5]; 66 mg kg^−1, injected once 30 min before infection",≈ 100 h
same,survival event of one larva (1 = death 0 = no death),"[5]; Figure 6B, Time 10 hours",1
same,survival event of one larva (1 = death 0 = no death),"[5]; Figure 6B, Time 35 hours",1
same,survival event of one larva (1 = death 0 = no death),"[5]; Figure 6B, Time 50 hours",1
same,survival event of one larva (1 = death 0 = no death),"[5]; Figure 6B, Time 73 hours",1
same,survival event of one larva (1 = death 0 = no death),"[5]; Figure 6D, Time 17 hours",1
same,survival event of one larva (1 = death 0 = no death),"[5]; Figure 6D, Time 23 hours",1
same,survival event of one larva (1 = death 0 = no death),"[5]; Figure 6D, Time 41 hours",1 and 0
same,Growth (%),C. tropicalis; 1.5625 µM,85% and 87% and 84%
same,Growth (%),C. tropicalis; 3.125 µM,76% and 75%
same,Growth (%),C. tropicalis; 25 µM,31% and 40% and 34%
same,EC50,C. tropicalis; Candida tropicalis,8.8 ± 1.4 µM
same,Growth (%),C. krusei; 1.5625 µM,97% and 93%
same,Growth (%),C. krusei; 3.125 µM,102% and 92% and 91%
same,Growth (%),C. krusei; 25 µM,103% and 86% and 91%
same,Growth (%),C. auris; 1.5625 µM,91% and 92% and 90%
same,Growth (%),C. auris; 3.125 µM,85% and 86% and 87%
same,Growth (%),C. auris; 25 µM,73% and 79%
same,EC50,C. auris; Candidozyma auris,> 50 µM
same,Growth (%),C. parapsilosis; 1.5625 µM,87% and 91% and 88%
same,Growth (%),C. parapsilosis; 3.125 µM,79% and 80% and 78%
same,Growth (%),C. parapsilosis; 25 µM,58% and 59% and 57%
same,EC50,C. parapsilosis; Lodderomyces parapsilosis,~30 µM
